# In publication PMC11990924, “Inhibition of Tyrosinase and Melanogenesis by Carboxylic Acids: Mechanistic Insights and Safety Evaluation” (Molecules, 2025):
# Where two headings read alike, the source gives them in different places.
# Experiments:
# [1] = target: mushroom tyrosinase (Agaricus bisporus, UniProt C7FF04); test: Inhibition of mushroom tyrosinase activity (L-DOPA, OD475); format: biochemical; settings: read-out: tyrosinase inhibition rate
# Description: L-DOPA solution (5 mM) and tyrosinase (400 U/mL) (Sigma-Aldrich, St. Louis, MO, USA) were prepared in PBS buffer (pH 7.4) (Qingdao Hope Bio-Technology Co., Ltd., Qingdao, China). A reaction mixture was prepared by combining 240 μL of carboxylic acid at various concentrations, 360 μL of L-DOPA solution, and 120 μL of tyrosinase. […] Deionized water was used as the control.
# [2] = target: T1, tyrosinase (Agaricus bisporus, UniProt C7FF04); test: Fluorescence spectra analysis of tyrosinase; format: binding, mushroom; settings: 6 mM; excitation 280 nm
# T1 construct: purchased Sigma-Aldrich
# T1 sequence (C7FF04 1-392 limits assumed): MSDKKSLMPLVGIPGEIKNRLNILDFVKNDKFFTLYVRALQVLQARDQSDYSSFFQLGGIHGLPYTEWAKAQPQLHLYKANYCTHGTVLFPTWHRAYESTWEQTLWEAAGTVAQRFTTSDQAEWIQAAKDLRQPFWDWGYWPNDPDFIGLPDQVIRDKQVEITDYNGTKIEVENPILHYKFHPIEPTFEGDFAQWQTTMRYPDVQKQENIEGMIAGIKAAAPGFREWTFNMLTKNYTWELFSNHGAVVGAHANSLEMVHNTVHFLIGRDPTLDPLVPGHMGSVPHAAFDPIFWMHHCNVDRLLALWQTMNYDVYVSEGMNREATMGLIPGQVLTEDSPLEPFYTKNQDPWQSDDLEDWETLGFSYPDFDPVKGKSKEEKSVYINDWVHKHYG
# Description: Carboxylic acid solutions at various concentrations were mixed with PBS buffer and tyrosinase (final concentration of 60 U/mL) and then transferred to a black 96-well plate. Fluorescence analysis was conducted using a microplate reader (Infinite 200Pro, Tecan).
# [3] = target: T1, tyrosinase; test: Kinetic analysis of tyrosinase (Lineweaver–Burk); format: biochemical, mushroom; settings: for inhibition mechanism: Lineweaver–Burk double-reciprocal plots
# Description: L-DOPA solutions at various concentrations (0.5, 1, 2, and 4 mM) were prepared in PBS buffer (pH 7.4) and mixed with carboxylic acids at different concentrations and tyrosinase (final concentration of 60 U/mL). […] The reaction rates were calculated based on the OD values. To analyze the inhibition types of the four carboxylic acids on tyrosinase, double-reciprocal Lineweaver–Burk plots were constructed with 1/v (reaction rate) as the y-axis and 1/[S] (substrate concentration) as the x-axis. The maximum reaction velocity (Vmax) and Michaelis constant (Km) were determined using GraphPad Prism 10 (GraphPad Software, Massachusetts, USA).
# [4] = pH of carboxylic acid mixed with PBS buffer, without tyrosinase; format: physicochemical; settings: in PBS buffer, absence of tyrosinase
# [5] = L-DOPA auto-oxidation analysis; settings: for L-DOPA auto-oxidation inhibition rate: 1.5 mM; for IC50: 37 °C, 12 h, calculated using SPSS, read-out: IC50 for L-DOPA auto-oxidation inhibition
# Description: A 5 mM L-DOPA solution was prepared in PBS buffer (pH 7.4). Subsequently, 240 μL of carboxylic acid solution, 360 μL of L-DOPA solution, and 120 μL of PBS buffer were sequentially mixed. The mixture was then incubated at 37 °C for 12 h. […] Deionized water was used as the control. The inhibition of L-DOPA auto-oxidation was calculated using the same method as the melanin content analysis.
# [6] = Cell viability of B16-F10 by MTT; format: cell-based; settings: mouse, B16-F10 cells
# Description: B16-F10 cells were seeded in 96-well plates at a density of 1 × 10^5 cells/mL and cultured at 37 °C with 5% CO2 for 24 h. Subsequently, various concentrations of carboxylic acids were added, and the cells were further incubated for 24 h. Then, 6 μL of MTT (5 mg/mL) was added, and the cells were cultured for an additional 4 h. Afterward, 200 μL of DMSO was added to dissolve the formazan crystals by gently pipetting up and down. The absorbance at 570 nm (OD570) was measured using a microplate reader (Infinite 200Pro, Tecan), with deionized water serving as the control. The cell viability was calculated with Equation (2): (2) [(OD570 of sample)/OD570 of control]×100%
# [7] = tested on: B16-F10 cells; test: Melanin content analysis of B16-F10 cells (α-MSH stimulated); format: cell-based; settings: Mus musculus, B16-F10, α-MSH 1 μM, 48 h, read-out: melanin inhibition rate; for inhibition at 6000 µM: 6 mM
# Description: A 900 μL cell suspension with an approximate density of 50% confluence was seeded into a 12-well plate and cultured for 24 h at 37 °C with 5% CO2. Subsequently, various concentrations of carboxylic acids were added, and the cells were further incubated for 1 h. Then, 1 μL of 1 mM α-melanocyte-stimulating hormone (α-MSH) solution was added to achieve a final concentration of 1 μM, and the cells were cultured for an additional 48 h at 37 °C with 5% CO2 to stimulate melanogenesis. Afterward, the cells were digested with trypsin, collected by centrifugation at 10,000 rpm for 5 min (Andreas Hettich GmbH & Co., KG, Tuttlingen, Germany), and the supernatant was discarded. Each tube was treated with 200 μL of 1 M NaOH solution and incubated in a water bath at 60 °C for 20 min. Following incubation, the samples were vortexed to ensure homogeneity, and 200 μL of each sample was transferred to a 96-well plate. The absorbance at 405 nm (OD405) was measured using a microplate reader (Infinite 200Pro, Tecan), and the data were recorded to calculate the melanin content, with deionized water serving as the control. The reduction in melanin content was calculated with Equation (3):(3) [(OD405 of control−OD405 of sample)/OD405 of control]×100%
# [8] = cited from earlier work
# [9] = target: tyrosinase from BioVision, Inc. (claimed to be of human origin); set-up: method as in PMID 38909081; settings: cited from earlier work
# [10] = tested on: rats; settings: cited from earlier work
# [11] = tested on: guinea pigs; settings: cited from earlier work
# [12] = tested on: tyrosinase and Tyrp 1/2; settings: Western blot; 300 and 500 μg/mL, 48 h intervals during 5 d culture; cited from earlier work
# Sequence of mushroom tyrosinase (C7FF04 2-392): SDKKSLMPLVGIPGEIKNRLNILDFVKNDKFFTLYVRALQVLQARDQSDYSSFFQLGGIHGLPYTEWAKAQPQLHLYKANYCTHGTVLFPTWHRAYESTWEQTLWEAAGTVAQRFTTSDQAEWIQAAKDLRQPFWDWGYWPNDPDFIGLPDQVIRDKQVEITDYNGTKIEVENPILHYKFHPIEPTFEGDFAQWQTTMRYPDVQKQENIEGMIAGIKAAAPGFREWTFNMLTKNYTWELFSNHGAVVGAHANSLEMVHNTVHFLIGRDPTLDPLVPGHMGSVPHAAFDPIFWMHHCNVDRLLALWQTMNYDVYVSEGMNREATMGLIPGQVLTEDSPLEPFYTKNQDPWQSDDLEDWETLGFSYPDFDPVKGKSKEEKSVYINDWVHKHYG
SMILES,decrease of tyrosinase fluorescence intensity [2],inhibition mechanism [3],pH ([4]; 6 mM),L-DOPA auto-oxidation inhibition rate [5],IC50 [5],"viability at 24 h, 6 mM [6]",inhibition at 6000 µM [7],IC50 DOPA auto-oxidation inhibition [8],other results
O=C(O)[C@@H]1CCC(O)=N1 [L-pyroglutamic acid],48.6%,competitive inhibition,3.7,exceeding 80%,660 µM,> 90%,27.8%,,inhibition at 6000 µM ([1]; 6 mM): > 80%; Ki [3]: 1950 µM
O=C1O[C@H]([C@@H](O)CO)C(O)=C1O [ascorbic acid],,,,,,,,989.6 µg/mL,
"O=c1cc(CO)occ1O [kojic acid, reference compound]",,,,,,,,418.5 µg/mL,IC50 [9]: 9.27 µM
CC(O)C(=O)O (centres unmarked) [lactic acid],45.0%,mixed-type inhibition,around 6,exceeding 80%,570 µM,> 90%,14.1%,,"inhibition at 6000 µM [1]: 47%; inhibition at 12000 µM [1]: 89%; Ki ([3]; GraphPad Prism, mixed-model or competitive model, read-out: inhibition constant (Ki)): 2710 µM; inhibition constant (KIS) for enzyme–substrate complex ([3]; mixed-type inhibitors): 17.032 mM; pH ([4]; 12 mM): 3.6; viability at 24 h, 12 mM ([6]; 12 mM): 97%; inhibition at 12000 µM ([7]; 12 mM): 29.4%; oral LD50 [10]: 3730 mg/kg; oral LD50 [11]: 1810 mg/kg; regulatory effect on melanogenesis-related proteins (tyrosinase and Tyrp 1/2) [12]: no significant regulatory effects"
